Molecules are shown by their SMILES. Like-named read-outs stand apart in the source and are kept apart here.

Series [1] relates to cancer cells. Briefly: MTS assay: inhibition of cell growth (formazan absorbance at 492 nm after 72 hours with test compound). The conditions noted are these: inhibition class. The format is cell-based. The method in brief: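 DMEM with 1% FBS; cells seeded at 3000/well and grown 18 h at 37 °C, then exposed to compound for 72 h and to MTS/PMS for 4 h. IC50 is the concentration giving a 50% absorbance drop; grades are % inhibition bands.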
(In general: Formazan colour is commonly taken as a measure of viable cells.)

[2] abbreviates: Homo sapiens, DLD-1 cells, read-out: DLD-1, MTS 72 hours at 10 uM.
Where [3] appears, read: Homo sapiens, KATO III cells, read-out: KATO III, MTS 72 hours at 10 uM.
Where [4] appears, read: Homo sapiens, MDA-MB-231 cells, read-out: MDA-MB-231, MTS 72 hours at 10 uM.
[5] abbreviates: Homo sapiens, NCI-H1299 cells, read-out: NCI-H1299, MTS 72 hours at 10 uM.
Where [6] appears, read: Homo sapiens, PC-3 cells, read-out: PC-3, MTS 72 hours at 10 uM.
Where [7] appears, read: PACA-2 cells, read-out: PACA-2, MTS 72 hours at 10 uM.

In general, melting point refers to the temperature of the solid-liquid transition. Compound `COc1ccc(CN2CCc3nn(Cc4ccccc4)c4nc(N5CCOCC5)nc2c34)cc1` [Compound 131, 4-(1-benzyl-5-(4-methoxybenzyl)-1,3,4,5-tetrahydro-1,2,5,6,8-pentaazaacenaphthylen-7-yl)morpholine] had a melting point of 118 to 120 °C.
Turning to `CC(C)Nc1nc2c3c(n[nH]c3n1)CCN2Cc1ccccc1` [Compound 60, 6-benzyl-N-isopropyl-2,6,7,8-tetrahydro-1,2,3,5,6-pentaazaacenaphthylen-4-amine], the inhibition at 10 µM in series [1] (setting [2]), in series [1] (setting [3]), in series [1] (setting [4]), in series [1] (setting [5]), in series [1] (setting [6]) and in series [1] (setting [7]) was below 50% in each case.
For `COc1cc(OC)nc(CN2CCN(c3nc4c5c(n[nH]c5n3)CCN4Cc3ccccc3)CC2)n1` [Compound 20, 6-benzyl-4-{4-[(4,6-dimethoxypyrimidin-2-yl)methyl]piperazin-1-yl}-2,6,7,8-tetrahydro-1,2,3,5,6-pentaazaacenaphthylene], the inhibition at 10 µM in series [1] (setting [2]), in series [1] (setting [3]), in series [1] (setting [4]), in series [1] (setting [5]), in series [1] (setting [6]) and in series [1] (setting [7]) was below 50% throughout.
Consider `COc1cc(CCNc2nc3c4c(n[nH]c4n2)CCN3Cc2ccccc2)cc(OC)c1` [Compound 11, 6-benzyl-N-[2-(3,5-dimethoxyphenyl)ethyl]-2,6,7,8-tetrahydro-1,2,3,5,6-pentaazaacenaphthylen-4-amine], for which the inhibition at 10 µM in series [1] (setting [2]) is 50 to 79%; in series [1] (setting [3]), above 79%; in series [1] (setting [4]), below 50%; in series [1] (setting [5]), above 79%; in series [1] (setting [6]) it was below 50%; in series [1] (setting [7]) it was 50 to 79%.
Take `Clc1cncc(Cl)c1N1CCN(c2nc3c4c(n[nH]c4n2)CCN3Cc2ccccc2)CC1` [Compound 85, 6-benzyl-4-[4-(3,5-dichloropyridin-4-yl)piperazin-1-yl]-2,6,7,8-tetrahydro-1,2,3,5,6-pentaazaacenaphthylene]: the inhibition at 10 µM in series [1] (setting [2]) is below 50%; in series [1] (setting [3]), below 50%; in series [1] (setting [4]) it was 50 to 79%; in series [1] (setting [5]), below 50%; in series [1] (setting [6]) it was above 79%; in series [1] (setting [7]), below 50%.
With `Cc1cccc(N2CCN(c3nc4c5c(n[nH]c5n3)CCN4Cc3ccccc3)CC2)n1` [Compound 27, 6-benzyl-4-[4-(6-methylpyridin-2-yl)piperazin-1-yl]-2,6,7,8-tetrahydro-1,2,3,5,6-pentaazaacenaphthylene], the inhibition at 10 µM in series [1] (setting [2]), in series [1] (setting [3]), in series [1] (setting [4]), in series [1] (setting [5]), in series [1] (setting [6]) and in series [1] (setting [7]) was below 50% throughout.
As to `COc1ccc(CN2CCc3n[nH]c4nc(SC)nc2c34)cc1` [Compound 99, 6-(4-methoxybenzyl)-4-(methylsulfanyl)-2,6,7,8-tetrahydro-1,2,3,5,6-pentaazaacenaphthylene], the inhibition at 10 µM in series [1] (setting [2]), in series [1] (setting [3]), in series [1] (setting [4]), in series [1] (setting [5]), in series [1] (setting [6]) and in series [1] (setting [7]) was below 50% in each case.

The values above are taken from patent US8343983B2, “Substituted pyrazolo-pyrimidine compounds” (ArQule, Inc., priority 2009, dated 2013).
